This is an account of results in US6984756B2, “Process for preparing biphenyl compounds” (Eli Lilly and Company, priority 2000, dated 2006).

Data set [1] in a line: solubility in organic solvents relative to compound of formula I. It is filed as physicochemical. The text has this:
In Scheme III above, the compound of formula I may be contaminated with achiral dimer, (methylsulfonyl){2-[4-(4-{2-[(methylsulfonyl)amino]ethyl}phenyl)phenyl]ethyl}amine and chiral dimer, ((2R)-2-{4-[4-((1R)-1-methyl-2-{[(methylethyl)sulfonyl]amino}ethyl)phenyl]phenyl}propyl)[(methylethyl)sulfonyl]amine. […] However, the above achiral dimer is less soluble in organic solvents than the compound of formula I therefore, generally resisted removal from the compound of formula I by recrystallization.

The next data set can be described thus: water solubility. In kind it is physicochemical.

In the case of `CS(=O)(=O)NCCc1ccc(-c2ccc(CCNS(C)(=O)=O)cc2)cc1` [achiral dimer, (methylsulfonyl){2-[4-(4-{2-[(methylsulfonyl)amino]ethyl}phenyl)phenyl]ethyl}amine], the “solubility in organic solvents compared with the compound of formula I” value in data set [1] is reported as “less soluble”. Same read-out and setting: in the case of `CC(C)S(=O)(=O)NC[C@H](C)c1ccc(-c2ccc([C@@H](C)CNS(=O)(=O)C(C)C)cc2)cc1` [chiral dimer, ((2R)-2-{4-[4-((1R)-1-methyl-2-{[(methylethyl)sulfonyl]amino}ethyl)phenyl]phenyl}propyl)[(methylethyl)sulfonyl]amine] it was “more soluble”. In the case of `CC(C)S(=O)(=O)NC[C@H](C)c1ccc(-c2ccc(CCNS(C)(=O)=O)cc2)cc1` [compound of formula I, {(2R)-2-[4-(4-{2-[(methylsulfonyl)amino]ethyl}phenyl)phenyl]propyl}[(methylethyl)sulfonyl]amine], the water solubility result in the data set “water solubility” is “poor”.
